Patent US20250236667A1, “ANTIBODIES TO MUTANT CALRETICULIN AND USES THEREOF” (CENTRAL ADELAIDE LOCAL HEALTH NETWORK INC, priority 2021, published 2025)

System: healthy cord blood CD34+ cells
Assay: cells
Type: cell-based, human
Conditions: Homo sapiens, 288 h, 12 days, read-out: inhibition of megakaryocyte formation
Protocol: Umbilical cord blood (UCB) was collected with written consent from full-term deliveries at the Women's Health Unit, Lyell McEwin Hospital (Adelaide, South Australia) or the Department of Obstetrics and Gynecology, Medical University of Graz (Austria) with institutional review board approval (IRB approval: 31-322 ex 18/19; HREC/20/WCHN/65). Samples were processed using a Ficoll-Paque (GE Healthcare) density gradient to isolate mononuclear cells (800×g, room temperature, 30 minutes, deceleration off), followed by red cell lysis (ammonium-chloride-potassium lysing buffer) to remove remaining red blood cells. CD34 enrichment was performed by magnetic cell separation using CD34 Microbead kit (Miltenyi Biotech). Alternatively, purified CD34+ cells from cord-blood were purchased from Lonza. CD34+ cells with a purity above 90% were either cryopreserved or directly cultured in serum-free stem cell retention media (StemSpan SFEMII, Stemcell Technologies, Vancouver, BC, Canada) supplemented with human recombinant SCF, TPO, FLT3, IL-6 (all 20 ng/mL), UM729 (1.75 uM) and StemReginin 1 (SR1, 300 nM). All cytokines and SRI were purchased from PeproTech (Rocky Hill, NJ, USA) whereas UM729 was purchased from Stemcell Technologies.
For megakaryocyte differentiation assays, CD34+ cells derived from cord blood or from patient peripheral blood mononuclear fractions were plated in Megacult (MegaCult™-C Collagen and Medium with Lipids) with added IL-3 and IL-6 (10 ng/ml) in the presence or absence of 50 ng/mL TPO. Cells were plated at an initial density of 1800 cells/well and cultured for 12 days at 37° C. and 5% CO2. […] Culture media was replenished every 3 days and cells were assessed for megakaryocyte differentiation on day 12 using anti-human CD41/61 PE-Cy7 (Clone A2A9/6) and CountBright beads (Thermo Fisher) to enumerate cell numbers. […] Cells were seeded at approximately 100 cells per well and were cultured in the presence of 20 μg/mL 4D7 or control IgG antibody and scored for colony and blast forming units at 12-14 days.

## N#CC[C@H](C1CCCC1)n1cc(-c2ncnc3[nH]ccc23)cn1 [ruxolitinib]
50 nM, P=0.008
  inhibition at 0.05 µM: > 30%
100 nM, P=0.07
  inhibition at 0.1 µM: > 30%
